Experimental data published in ChEMBL document CHEMBL4482324, “Ash1l inhibitors and methods of treatment therewith” (2017).
pIC50: −log10 of the molar value. The source made the active and inactive calls. The calls are words filed in the database; no cut-off is given here.

Experiments:
[1] = tested on: MV4-11; test: Cytotoxicity in human MV4-11 cells assessed as reduction in cell viability incubated for 12 days with fresh compound replacement for every 4 days by MTT assay; type: functional
[2] = tested on: RS4-11; test: Cytotoxicity in human RS4:11 cells assessed as reduction in cell viability incubated for 12 days with fresh compound replacement for every 4 days by MTT assay; type: functional
[3] = molecular target: Histone-lysine N-methyltransferase ASH1L (Homo sapiens, UniProt Q9NR48); test: Inhibition of MOCR-fused ASH1L SET-BAH ( 2069 to 2833 amino acids) (unknown origin) expressed as in Escherichia coli BL21 (DE3) T1R cells using SAM and chicken mono/dinucleosomes incubated for 1 hr by scintillation counting assay
[4] = tested on: SEM cells; test: Cytotoxicity in human SEM cells assessed as reduction in cell viability incubated for 12 days with fresh compound replacement for every 4 days by MTT assay; type: functional
[5] = molecular target: Histone-lysine N-methyltransferase ASH1L (Mus musculus) (UniProt Q99MY8); test: Inhibition of ASH1L in MLL-AF9 transformed mouse MA9 cells assessed as downregulation of Meis1 gene expression at 1.5 to 6 uM by quantitative RT-PCR analysis
[6] = tested on: MOLM-13; test: Cytotoxicity in human MOLM13 cells assessed as reduction in cell viability incubated for 12 days with fresh compound replacement for every 4 days by MTT assay; type: functional
[7] = molecular target: Histone-lysine N-methyltransferase ASH1L (Mus musculus) (UniProt Q99MY8); test: Inhibition of ASH1L in MLL-AF9 transformed mouse MA9 cells assessed as downregulation of HOX10 gene expression at 1.5 to 6 uM by quantitative RT-PCR analysis
[8] = molecular target: Histone-lysine N-methyltransferase ASH1L (Mus musculus) (UniProt Q99MY8); test: Inhibition of ASH1L in MLL-AF9 transformed mouse MA9 cells assessed as downregulation of HOX9 gene expression at 1.5 to 6 uM by quantitative RT-PCR analysis
[9] = molecular target: Histone-lysine N-methyltransferase ASH1L (Mus musculus) (UniProt Q99MY8); test: Inhibition of ASH1L in MLL-AF9 transformed mouse MA9 cells assessed as downregulation of HOX10 gene expression at 6 to 12 uM by quantitative RT-PCR analysis
[10] = Cytotoxicity in Hoxa9/Meis1 transformed mouse HM2 cells assessed as reduction in cell viability incubated for 12 days with fresh compound replacement for every 4 days by MTT assay; type: cell-based
[11] = Effect on HOX9 gene expression in Hoxa9/Meis1 transformed mouse HM2 cells at 6 to 12 uM by quantitative RT-PCR analysis; type: ADME
[12] = molecular target: Histone-lysine N-methyltransferase ASH1L (Mus musculus) (UniProt Q99MY8); test: Inhibition of ASH1L in MLL-AF9 transformed mouse MA9 cells assessed as downregulation of Meis1 gene expression at 6 to 12 uM by quantitative RT-PCR analysis
[13] = Cytotoxicity in MLL-AF9 transformed mouse MA9 cells assessed as reduction in cell viability incubated for 12 days with fresh compound replacement for every 4 days by MTT assay; type: functional
[14] = Effect on HOX7 gene expression in Hoxa9/Meis1 transformed mouse HM2 cells at 6 to 12 uM by quantitative RT-PCR analysis; type: ADME
[15] = molecular target: Histone-lysine N-methyltransferase ASH1L (Mus musculus) (UniProt Q99MY8); test: Inhibition of ASH1L in MLL-AF9 transformed mouse MA9 cells assessed as downregulation of HOX9 gene expression at 6 to 12 uM by quantitative RT-PCR analysis
[16] = Effect on HOX10 gene expression in Hoxa9/Meis1 transformed mouse HM2 cells at 6 to 12 uM by quantitative RT-PCR analysis; type: ADME
[17] = molecular target: Histone-lysine N-methyltransferase ASH1L (Mus musculus) (UniProt Q99MY8); test: Inhibition of ASH1L in MLL-AF9 transformed mouse MA9 cells assessed as downregulation of HOX7 gene expression at 6 to 12 uM by quantitative RT-PCR analysis
[18] = Effect on Meis1 gene expression in Hoxa9/Meis1 transformed mouse HM2 cells at 6 to 12 uM by quantitative RT-PCR analysis; type: ADME

Compound | pIC50 [3] | other results
NC(=S)c1cncc(-c2ccc(O)cc2)c1 | < 4.00 | –
NC(=S)c1ccc(-c2ccc(O)cc2)s1 | < 4.00 | –
CN(C)CCNc1ccc2c(-c3cccc(C(N)=S)c3)cn(CCCC(F)(F)F)c2c1 | < 4.00 | –
NC(=S)c1cccc(-c2cn(CCCC(F)(F)F)c3ccc(N)cc23)c1 | 4.00 to 4.70 | –
CC(O)COC(C)Cn1cc(-c2cccc(C(N)=S)c2)c2ccccc21 (configuration not stated) | 4.00 to 4.70 | –
NC(=S)c1cccs1 | < 4.00 | –
NC(=S)c1cccc(-c2ccc(O)c3c2CCC3=O)c1 | < 4.00 | –
NC(=S)c1cccc(-c2cc(C(F)(F)F)cc3[nH]ccc23)c1 | 4.00 to 4.70 | –
NCCOCCOc1ccc(-c2cccc(C(N)=S)c2)c2cc[nH]c12 | 4.00 to 4.70 | –
NC(=S)c1cccc(-c2cccc(OCc3ccccc3)c2)c1 | < 4.00 | –
Cn1cc(-c2cccc(C(N)=S)c2)c2ccccc21 | 4.00 to 4.70 | –
Cc1cc2c(-c3cccc(C(N)=S)c3)cccc2n1C | < 4.00 | –
CSC(=N)c1cccc(-c2ccccc2)c1 | < 4.00 | –
CC(N)c1cccc(-c2cccc3[nH]ccc23)c1 (configuration not stated) | < 4.00 | –
Cc1[nH]c2ccccc2c1-c1cccc(C(N)=S)c1 | < 4.00 | –
NC(=S)c1cccc(-n2cccc2)c1 | < 4.00 | –
NC(=S)c1cc(O)cc(-c2cn(CCCC(F)(F)F)c3cc(N)ccc23)c1 | 4.00 to 4.70 | –
NC(=S)c1cccc(-c2cn(CCC(O)C(F)(F)F)c3cc(N)ccc23)c1 (configuration not stated) | 4.00 to 4.70 | –
NC(=S)c1cc(-c2cccc3[nH]ccc23)ccc1N | < 4.00 | –
CCn1ccc2c(-c3cccc(C(N)=S)c3)cccc21 | < 4.00 | –
NCc1cccc2c(-c3cccc(C(N)=S)c3)c[nH]c12 | 4.00 to 4.70 | –
NC(=S)c1cccc(-c2c[nH]c3cccc(N)c23)c1 | < 4.00 | –
NC(=S)c1cc(O)cc(-c2cccc3[nH]ccc23)c1 | < 4.00 | –
NC(=S)c1cc(-c2cccc3[nH]ccc23)ccc1O | < 4.00 | –

Compound | pIC50 [3] | other results
NC(=S)c1cccc(-c2cn(CCCC(F)(F)F)c3cc(CN4CCNCC4)ccc23)c1 | 4.00 to 4.70 | –
Cc1c(O)ccc(-c2cncc(C(N)=S)c2)c1C | < 4.00 | –
NC(=S)c1cccc(-c2c[nH]c3cc(C(N)=S)ccc23)c1 | 4.00 to 4.70 | –
NC(=O)c1ccc2c(-c3cccc(C(N)=S)c3)c[nH]c2c1 | < 4.00 | –
NC(=S)c1cccc(-c2cn(CCO)c3ccccc23)c1 | 4.00 to 4.70 | –
NC(=S)c1cccc(-c2cn(C3CCN(S(=O)(=O)CCCNC(=O)c4ccc5c(c4)C(=O)OC54c5ccc(O)cc5Oc5cc(O)ccc54)CC3)c3cc(CNc4nnc(N)s4)ccc23)c1 | > 4.70 | –
NC(=S)c1cc(-c2cn(CC(CF)CF)c3cc(CO)ccc23)ccc1F | > 4.70 | –
CS(=O)(=O)N1CCC(n2cc(-c3cccc(C(N)=S)c3)c3ccc(CNC(=O)Cc4cc(NCC5CCCCC5)c[nH]4)cc32)CC1 | > 4.70 | –
CS(=O)(=O)N1CCC(n2cc(-c3cccc(C(N)=S)c3)c3cc(F)ccc32)CC1 | 4.00 to 4.70 | –
NC(=S)c1cccc(-c2cn(CCCC(F)(F)F)c3cc(N)ccc23)c1 | > 4.70 | –
NC(=S)c1ccc(F)c(-c2ccc(O)cc2)c1 | < 4.00 | –
NC(=S)c1cccc(-c2cn(CCCC(F)(F)F)c3cc(CNCc4cn[nH]n4)ccc23)c1 | > 4.70 | –
Cc1c(CO)ccc2c(-c3cccc(C(N)=S)c3)cn(CCCC(F)(F)F)c12 | > 4.70 | –
NC(=S)c1cccc(-c2cn(CC3CCC3)c3cc(CO)ccc23)c1 | > 4.70 | –
NC(=S)c1cccc(-c2cccc3[nH]ncc23)n1 | < 4.00 | –
NC(=S)c1cccc(-c2ccc(O)c3c2CCC3O)c1 (configuration not stated) | < 4.00 | –
CS(=O)(=O)N1CCC(n2cc(-c3cccc(C(N)=S)c3)c3ccc(CNC(=O)Cc4ccc[nH]4)cc32)CC1 | > 4.70 | –
NC(=S)c1cccc(-c2cn(CC3CCCC3)c3cc(N)ccc23)c1 | > 4.70 | –
NC(=S)c1cccc(-c2cn(CC(CF)CF)c3cc(NC(CO)CO)ccc23)c1 | > 4.70 | –
NC(=S)c1cccc(-c2cn(CCC3CC3)c3cc(CO)ccc23)c1 | > 4.70 | –
NC(=S)c1cc(-c2cn(CCC(F)F)c3cc(CO)ccc23)ccc1F | > 4.70 | –
NC(=S)c1cccc(-c2c[nH]c3ccc(O)cc23)c1 | < 4.00 | inhibition [9]: inactive; GI50 at 288 h [10]: 62 µM; Activity [11]: Non-Toxic; GI50 [1]: 27 µM; inhibition [12]: inactive; GI50 [6]: 38 µM; GI50 [13]: 43 µM; Activity [14]: Non-Toxic; inhibition [15]: inactive; Activity [16]: Non-Toxic; inhibition [17]: inactive; Activity [18]: Non-Toxic
CCCOc1nnc(NCc2ccc3c(-c4cccc(C(N)=S)c4)cn(C4CCN(S(C)(=O)=O)CC4)c3c2)s1 | > 4.70 | –
NC(=S)c1cc(-c2cn(CCC(F)F)c3cc(CO)ccc23)c2ocnc2c1 | > 4.70 | –

The next lines start with results.

pIC50 [3] | Compound | other results
> 4.70 | NC(=S)c1cccc(-c2cn(CCCC(F)(F)F)c3cc(-c4ccn[nH]4)ccc23)c1 | GI50 [1]: 1.8 µM; GI50 [2]: 2.8 µM; GI50 [4]: 1.1 µM; inhibition [5]: Active; GI50 [6]: 1.4 µM; inhibition [7]: Active; inhibition [8]: Active
> 4.70 | NC(=S)c1cccc(-c2cn(CC3(F)CCC3)c3cc(CO)ccc23)c1 | –
> 4.70 | CCCS(=O)(=O)N1CCC(n2cc(-c3cccc(C(N)=S)c3)c3ccc(CNc4c[nH]c(C)n4)cc32)CC1 | –
> 4.70 | NC(=S)c1cccc(-c2ccc(CCC(F)F)c3[nH]ccc23)c1 | –
> 4.70 | NC(=S)c1cccc(-c2cn(CC3C(F)(F)CC3(F)F)c3cc(CO)ccc23)c1 | –
> 4.70 | NC(=S)c1cccc(-c2cn(CC(CF)CF)c3cc(CO)ccc23)c1 | –
> 4.70 | NC(=S)c1cccc(-c2cn(CC(C(F)F)C(F)F)c3cc(N)ccc23)c1 | –
> 4.70 | NC(=S)c1cccc(-c2cn(CC3C(F)(F)C3(F)F)c3cc(CO)ccc23)c1 | –
> 4.70 | NC(=S)c1cccc(-c2cn(CC(O)(CC(F)(F)F)CC(F)(F)F)c3cc(N)ccc23)c1 | –
> 4.70 | NC(=S)c1cccc(-c2cn(C3CCN(S(=O)(=O)CCCNC(=O)c4ccc5c(c4)C(=O)OC54c5ccc(O)cc5Oc5cc(O)ccc54)CC3)c3cc(CNC(=O)Cc4c[nH]cn4)ccc23)c1 | –
> 4.70 | Nc1ccc2c(-c3ccc4ccnc(N)c4c3)cn(CCC(F)F)c2c1 | –
> 4.70 | NC(=S)c1cccc(-c2cn(C3CCN(S(=O)(=O)CCNC(=O)COc4cccc5c4C(=O)N(C4CCC(=O)NC4=O)C5=O)CC3)c3cc(CNc4nnc(N)s4)ccc23)c1 (configuration not stated) | –
> 4.70 | NC(=S)c1ccc(-c2cn(CCC(F)F)c3cc(CO)ccc23)[nH]1 | –
> 4.70 | NC(=S)c1cccc(-c2cn(CCC(F)F)c3cc(CF)ccc23)c1 | –
> 4.70 | NC(=S)c1cccc(-c2cn(CCCC(F)(F)F)c3cc(NCC(F)(F)F)ccc23)c1 | –
> 4.70 | NC(=S)c1cccc(-c2cn(CC(CCF)CC(F)F)c3cc(N)ccc23)c1 (configuration not stated) | –
> 4.70 | CS(=O)(=O)N1CCC(n2cc(-c3cccc(C(N)=S)c3)c3ccc(CNc4nnc(N)s4)cc32)CC1 | –
> 4.70 | NC(=S)c1cccc(-c2cn(Cc3ccc[nH]3)c3cc(CO)ccc23)c1 | –
> 4.70 | NC(=S)c1cccc(-c2cn(CCCC(F)(F)F)c3cc(N)ccc23)n1 | –
> 4.70 | NC(=S)c1cc(-c2cn(CC(CF)CF)c3cc(CO)ccc23)ccc1O | –
> 4.70 | CCC(O)c1ccc2c(-c3cccc(C(N)=S)c3)cn(CCC(F)F)c2c1 (configuration not stated) | –
> 4.70 | NC(=S)c1ccnc(-c2cn(CC(CF)CF)c3cc(CO)ccc23)c1 | –
> 4.70 | NC(=S)c1cccc(-c2cn(CCC(F)F)c3cc(C(O)CO)ccc23)c1 (configuration not stated) | –
> 4.70 | CCOc1c[nH]c(CC(=O)NCc2ccc3c(-c4cccc(C(N)=S)c4)cn(C4CCN(S(C)(=O)=O)CC4)c3c2)c1 | –
> 4.70 | N#Cc1cccc(-c2cn(CC(CO)C(F)F)c3cc(N)ccc23)c1 (configuration not stated) | –
> 4.70 | NC(=S)c1cccc(-c2cn(CCCC(F)(F)F)c3cc(CNS(=O)(=O)c4c[nH]cn4)ccc23)c1 | –
> 4.70 | CCCc1c[nH]c(CC(=O)NCc2ccc3c(-c4cccc(C(N)=S)c4)cn(C4CCN(S(C)(=O)=O)CC4)c3c2)c1 | –
> 4.70 | NC(=S)c1cccc(-n2cc(C3CCCCC3O)c3cc(CO)ccc32)c1 (configuration not stated) | –
> 4.70 | NC(=S)c1cccc(-c2cn(CC(CF)CF)c3cc(NC(=O)c4ncc[nH]4)ccc23)c1 | –
> 4.70 | CCCn1cncc1CC(=O)NCc1ccc2c(-c3cccc(C(N)=S)c3)cn(C3CCN(S(=O)(=O)CCC)CC3)c2c1 | –
